Test results taken from patent US8916557B2, “Substituted 4-Aryl-N-phenyl-1,3,5-triazin-2-amines” (Bayer Intellectual Property GmbH, priority 2011, dated 2014).

Key:
[1] = test system: HeLa-MaTu-ADR, multidrug-resistant human cervical carcinoma cells; assay: Proliferation assay (crystal violet), HeLa-MaTu-ADR; format: cell-based; conditions: read-out: Inhibition of HeLa/MaTu/ADR cell proliferation
Method: (§1) Cultivated tumour cells (NCI-H460, human non-small cell lung carcinoma cells, ATCC HTB-177; DU 145, hormone-independent human prostate carcinoma cells, ATCC HTB-81; HeLa-MaTu, human cervical carcinoma cells, EPO-GmbH, Berlin; HeLa-MaTu-ADR, multidrug-resistant human cervical carcinoma cells, EPO-GmbH, Berlin; HeLa human cervical tumour cells, ATCC CCL-2; Caco-2 human colorectal carcinoma, ATCC HTB-37; B16F10 mouse melanoma cells, ATCC CRL-6475) were plated at a density of 5000 cells/well (DU145, HeLa-MaTu-ADR), 3000 cells/well (NCI-H460, HeLa-MaTu, HeLa), 1500 cells/well (Caco-2), or 1000 cells/well (B16F10) in a 96-well multititer plate in 200 μL of their respective growth medium supplemented 10% fetal calf serum. After 24 hours, the cells of one plate (zero-point plate) were stained with crystal violet (see below), while the medium of the other plates was replaced by fresh culture medium (200 μl), to which the test substances were added in various concentrations (0 μM, as well as in the range of 0.001-10 μM; the final concentration of the solvent dimethyl sulfoxide was 0.5%). The cells were incubated for 4 days in the presence of test substances. Cell proliferation was determined by staining the cells with crystal violet: the cells were fixed by adding 20 μl/measuring point of an 11% glutaric aldehyde solution for 15 minutes at room temperature. After three washing cycles of the fixed cells with water, the plates were dried at room temperature. The cells were stained by adding 100 μl/measuring point of a 0.1% crystal violet solution (pH 3.0). After three washing cycles of the stained cells with water, the plates were dried at room temperature. The dye was dissolved by adding 100 μl/measuring point of a 10% acetic acid solution. The extinction was determined by photometry at a wavelength of 595 nm. The change of cell number, in percent, was calculated by normalization of the measured values to the extinction values of the zero-point plate (=0%) and the extinction of the untreated (0 μm) cells (=100%). The IC50 values were determined by means of a 4 parameter fit.

[2] = test system: B16F10 mouse melanoma cells; assay: Proliferation assay (crystal violet), B16F10; format: cell-based; conditions: B16-F10, read-out: Inhibition of B16F10 cell proliferation
Method: as §1

[3] = test system: DU 145, hormone-independent human prostate carcinoma cells; assay: Proliferation assay (crystal violet), DU 145; format: cell-based; conditions: DU145 cells, read-out: Inhibition of DU145 cell proliferation
CDK2/CycE = target: T1, CDK2/CycE (Homo sapiens, UniProt P24941); assay: CDK2/CycE kinase assay (TR-FRET); format: biochemical; conditions: Method 2, 10 μM ATP
T1 construct: GST; purchased ProQinase GmbH (Freiburg, Germany); host or cells: insect cells (Sf9)
Procedure, shortened: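 TR-FRET read-out: emission ratio 665/620 nm via anti-RB(pSer807/pSer811) antibody, Eu-anti-mouse IgG and streptavidin-XL665. Kinase reaction: insect-cell GST-CDK2/CycE, compound pre-bound 15 min, 10 μM ATP final, 0.75 μM biotin-peptide, 25 min, 22 °C, pH 8.0.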

[4] = test system: Caco-2 human colorectal carcinoma; assay: Proliferation assay (crystal violet), Caco-2; format: cell-based; conditions: CACO-2 cells, read-out: Inhibition of CACO-2 cell proliferation
[5] = test system: HeLa human cervical tumour cells; assay: Proliferation assay (crystal violet), HeLa; format: cell-based; conditions: read-out: Inhibition of HeLa cell proliferation

IC50 [1] [nM]	IC50 [2] [nM]	IC50 [3] [nM]	IC50 (CDK2/CycE) [nM]	IC50 [4] [nM]	IC50 [5] [nM]	Structure (SMILES)
350	440	380	400	740	510	Cc1cccc(COc2cc(F)ccc2-c2ncnc(Nc3cccc(CS(C)(=O)=O)c3)n2)c1 [Example 83, 4-{4-Fluoro-2-[(3-methylbenzyl)oxy]phenyl}-N-{3-[(methylsulfonyl)-methyl]phenyl}-1,3,5-triazin-2-amine]
350	450	410	260	560	320	CS(=O)(=O)Cc1cccc(Nc2ncnc(-c3ccc(F)cc3OCc3cccc(Cl)c3)n2)c1 [Example 85, 4-{2-[(3-Chlorobenzyl)oxy]-4-fluorophenyl}-N-{3-[(methylsulfonyl)methyl]phenyl}-1,3,5-triazin-2-amine]
740	370	300	370	730	320	Cc1cc(COc2cc(F)ccc2-c2ncnc(Nc3cccc(CS(C)(=O)=O)c3)n2)ccn1 [Example 87, 4-{4-Fluoro-2-[(2-methylpyridin-4-yl)methoxy]-phenyl}-N-{3-[(methylsulfonyl)methyl]phenyl}-1,3,5-triazin-2-amine]
340	250	180	400	310	110	CS(=O)(=O)Cc1cccc(Nc2ncnc(-c3ccc(F)cc3OCc3ccncc3)n2)c1 [Example 89, 4-[4-Fluoro-2-(pyridin-4-ylmethoxy)phenyl]-N-{3-[(methylsulfonyl)methyl]phenyl}-1,3,5-triazin-2-amine]
330	320	280	680	310	110	CS(=O)(=O)Cc1cccc(Nc2ncnc(-c3ccc(F)cc3OCc3ccc(C#N)cc3)n2)c1 [Example 90, 4-({5-Fluoro-2-[4-({3-[(methylsulfonyl)methyl]phenyl}amino)-1,3,5-triazin-2-yl]phenoxy}methyl)-benzonitrile]
